The values below come from ChEMBL document CHEMBL4602648, “The bioisosteric modification of pyrazinamide derivatives led to potent antitubercular agents: Synthesis via click approach and molecular docking of pyrazine-1,2,3-triazoles” (Bioorg Med Chem Lett, 2020).

In one data set the test system is Escherichia coli. Put plainly: Antibacterial activity against Escherichia coli by dilution assay. Format: functional.
The next data set relates to Pseudomonas aeruginosa. The data set is described as follows: Antibacterial activity against Pseudomonas aeruginosa by dilution assay. Format: functional.
The subject of a further data set is Vero. The data set is described as follows: Cytotoxicity against African green monkey Vero cells assessed as reduction in cell viability incubated for 48 hrs by MTT assay. Format: cell-based. Conditions: Chlorocebus sabaeus.
A short description of data set [1]: Cytotoxicity against African green monkey Vero cells assessed as growth inhibition at 62.5 ug/ml after 48 hrs by MTT assay relative to control. Format: cell-based. Conditions: chlorocebus sabaeus, read-out: GI. (In general: Tetrazolium dyes change colour on reduction, which living cells bring about.)
In data set [2] the target is T1, Enoyl-[acyl-carrier-protein] reductase [NADH] (Mycobacterium tuberculosis) (UniProt P9WGR1).
T1 sequence (whole entry): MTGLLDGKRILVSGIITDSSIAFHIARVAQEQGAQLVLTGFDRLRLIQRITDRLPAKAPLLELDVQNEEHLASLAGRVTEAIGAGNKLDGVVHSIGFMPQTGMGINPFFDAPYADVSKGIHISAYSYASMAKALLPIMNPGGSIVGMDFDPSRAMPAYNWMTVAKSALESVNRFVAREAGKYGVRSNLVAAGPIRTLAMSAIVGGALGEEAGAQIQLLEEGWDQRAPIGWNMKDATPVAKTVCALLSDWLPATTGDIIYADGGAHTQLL
The data set is described as follows: Inhibition of Mycobacterium tuberculosis H37Rv ATCC 27294 InhA assessed as bacterial growth inhibition after 5 days by microplate alamar blue assay. (Resazurin is reduced to fluorescent resorufin, in cell work by metabolically active cells.)

A short description of data set [3]: Selectivity index, ratio of IC50 for cytotoxicity against African green monkey Vero cells to MIC for antitubercular activity against Mycobacterium tuberculosis H37Rv ATCC 27294. Format: toxicity, cell-based. The settings on record: read-out: Selectivity Index.
The test system of another data set is Staphylococcus aureus. The data set is described as follows: Antibacterial activity against Staphylococcus aureus by dilution assay. Format: functional.

In brackets after ≈: the same amount, converted by molar mass.

A word on the IC50: it is the concentration that inhibits the measured activity by half. As for `O=C(NCc1cn(Cc2ccc(F)cc2)nn1)c1cnccn1`, the MIC was found to be 12.5 µg/mL (≈ 40 µM) against Escherichia coli, 12.5 µg/mL (≈ 40 µM) against Pseudomonas aeruginosa, 4.99 µM (≈ 1.56 µg/mL) in data set [2] and 6.25 µg/mL (≈ 20 µM) against Staphylococcus aureus. In the data set on Vero, the IC50 was 496 µg/mL (≈ 1590 µM). Moreover, the inhibition at 48 h, 62.5 ug/ml in data set [1] turned out to be 5.9%. Moreover, the selectivity ratio in data set [3] came to 318.

Take `N#Cc1ccc(Cn2cc(CNC(=O)c3cnccn3)nn2)cc1`: the MIC in the data set with Escherichia coli turned out to be 6.25 µg/mL (≈ 19.6 µM); in the data set on Pseudomonas aeruginosa it was 6.25 µg/mL (≈ 19.6 µM); in data set [2] it was 4.88 µM (≈ 1.56 µg/mL); against Staphylococcus aureus, 6.25 µg/mL (≈ 19.6 µM). In addition, the IC50 with Vero was 533 µg/mL (≈ 1670 µM). Moreover, the inhibition at 48 h, 62.5 ug/ml in data set [1] was determined as 12.3%. Also, the selectivity ratio in data set [3] came out at 342.

As for `O=C(NCc1cn(Cc2ccc([N+](=O)[O-])cc2)nn1)c1cnccn1`, the MIC in the data set on Escherichia coli amounted to 6.25 µg/mL (≈ 18.4 µM); in the data set on Pseudomonas aeruginosa, 6.25 µg/mL (≈ 18.4 µM); in data set [2], 4.59 µM (≈ 1.56 µg/mL); in the data set on Staphylococcus aureus, 3.12 µg/mL (≈ 9.19 µM). Moreover, the IC50 in the data set with Vero amounted to 403 µg/mL (≈ 1190 µM). Further, the inhibition at 48 h, 62.5 ug/ml in data set [1] turned out to be 20.5%. For the same compound, the selectivity ratio in data set [3] worked out at 258.
